Measured values reported in publication PMC2912288 (International journal of pharmaceutics, 2010).
Entries after “also recorded” stand apart in the source; their conditions may differ. Read-outs that look alike come from different tables or passages of the source.

What was measured:
[1] = target: T1, human apical sodium-dependent bile acid transporter (ASBT) (Homo sapiens, UniProt Q12908); experiment: Inhibition of taurocholate uptake by prodrugs in ASBT-MDCK monolayers; type: cell-based; settings: taurocholate uptake into ASBT-MDCK monolayers, 10 min
T1 sequence (Q12908 1-348): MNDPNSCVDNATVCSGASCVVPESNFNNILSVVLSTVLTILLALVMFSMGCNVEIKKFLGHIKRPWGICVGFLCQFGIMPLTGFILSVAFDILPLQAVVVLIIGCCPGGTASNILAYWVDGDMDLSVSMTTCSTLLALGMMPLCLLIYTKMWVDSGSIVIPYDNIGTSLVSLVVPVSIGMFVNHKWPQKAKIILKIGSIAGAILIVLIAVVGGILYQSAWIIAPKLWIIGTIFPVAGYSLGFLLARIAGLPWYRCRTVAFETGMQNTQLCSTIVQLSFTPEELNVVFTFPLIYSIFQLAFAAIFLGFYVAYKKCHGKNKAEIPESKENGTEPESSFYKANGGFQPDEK

[2] = of the drug moiety; source not stated; cited from earlier work
[3] = ref Porter and Kaplan, 2009; cited from earlier work
[4] = target: T1, human apical sodium-dependent bile acid transporter (ASBT); experiment: Uptake of prodrug into ASBT-MDCK monolayers
[5] = target: Pept1; settings: CHO-PepT1; ref Han et al., 1998; cited from earlier work
[6] = ref Burnette and de, 1994; cited from earlier work
[7] = target: Pept1; settings: Xenopus laevis oocytes; ref Balimane et al., 1998; cited from earlier work
[8] = prodrug uptake into ASBT-MDCK, 1–500 μM, 10 min, 37°C, mean (±SEM) of three measurements

For `O=C(O)c1cccnc1` [niacin, nicotinic acid], the “ASBT inhibition (result in words)” value [1] is given as “Neither ketoprofen nor niacin was ASBT inhibitor; also recorded: not reduced”, the “Log P” value [2] is given as 0.25 and the half-life [3] is given as 20 to 45 min.

With CDCA-lysine-ketoprofen the “transport capacity relative to the capacity for taurocholate” value ([4]; from normJmax) was 1.87 fold and the Kt [4, 8] was 50.8 (±23.2) μM.

For CDCA-lysine-niacin, the “ASBT's capacity to transport, relative to that of taurocholate” value ([4]; from normJmax) was “about 9%” and the Kt [4, 8] was 8.22 (±3.63) μM.

Work on `C[C@H](CCC(=O)NCCS(=O)(=O)O)[C@H]1CC[C@H]2[C@@H]3[C@H](O)C[C@@H]4C[C@H](O)CC[C@]4(C)[C@H]3C[C@H](O)[C@]12C` [taurocholate, Taurocholic acid] yielded a Kt ([4]; taurocholate, obtained from a pooled data analysis approach) of 5.03 µM.

For `CC(C)[C@H](N)C(=O)OCCOCn1cnc2c(=O)[nH]c(N)nc21` [valacyclovir], the Ki [5] is given as 1.1 mM, the “increase of acyclovir bioavailability” value [6] is given as 3 fold and the Ki [7] is given as 4.08 mM.

In the case of `CC(C(=O)O)c1cccc(C(=O)c2ccccc2)c1` (stereo not drawn) [ketoprofen, Ketoprofen], the “ASBT inhibition (result in words)” value [1] is reported as “Neither ketoprofen nor niacin was ASBT inhibitor; also recorded: not reduced”.
